US20120122727A1, “IN VITRO METHOD FOR PREDICTING WHETHER A COMPOUND IS GENOTOXIC IN VIVO” (priority 2009, published 2012)

Tested on: primary mouse hepatocytes
Assay: Gene expression (Affymetrix Mouse Genome 430 2.0) in primary mouse hepatocytes, true vs false GTX, 24 h and 48 h
Details: log2, corrected for vehicle control

Nc1ccccc1C(=O)O [ANAC, o-Anthranilic acid]
Gene expression data AF000969 (Cadps2) (24 h average): −0.12 | Gene expression data AF022072 (Grb10) (24 h average): 0.4544 | Gene expression data AF065917 (Lif) (24 h average): −0.2023 | Gene expression data AF204959 (Cyp3a25 /// LOC622249) (24 h average): −0.28 | Gene expression data AF297615 (Ggta1) (24 h average): 0.03103 | Gene expression data AI594683 (Dmn) (24 h average): −0.2163 | Gene expression data AI596632 (Ptprg /// LOC632664) (24 h average): 0.1214 | Gene expression data AI987929 (Ndrg1) (24 h average): 0.6977 | Gene expression data AK004419 (Fbxl17) (24 h average): −0.01793 | Gene expression data AK005731 (1700007K13Rik) (24 h average): −0.1733 | Gene expression data AK007766 (1810044A24Rik) (24 h average): −0.05167 | Gene expression data AK007854 (1810053B23Rik) (24 h average): −0.4283 | Gene expression data AK009736 (Gpr137b /// LOC664862 /// LOC673335) (24 h average): −0.0957 | Gene expression data AK010447 (Smyd3) (24 h average): −0.1211 | Gene expression data AK014608 (4632434l11Rik) (24 h average): −0.1768 | Gene expression data AK019979 (2610528E23Rik) (24 h average): 0.1139 | Gene expression data AV095209 (Mthfd1l) (24 h average): 0.3162 | Gene expression data AV141095 (1110033M05Rik) (24 h average): −0.1293 | Gene expression data AV173571 (1700106N22Rik) (24 h average): −0.1574 | Gene expression data AV219418 (Ldhb) (24 h average): −0.2907 | Gene expression data AV223474 (Zdhhc14) (24 h average): −0.07347 | Gene expression data AV298304 (Homez) (24 h average): −0.0861 | Gene expression data AV327248 (Zfp365 /// LOC674611) (24 h average): 0.0212 | Gene expression data AV377066 (9130221J18Rik) (24 h average): −0.2482 | Gene expression data AW240761 (Tbc1d5) (24 h average): 0.001667 | Gene expression data AW543460 (Pard3) (24 h average): 0.06037 | Gene expression data AW543723 (24 h average): 0.2943 | Gene expression data AW986246 (Maoa) (24 h average): 0.01683 | Gene expression data BB027848 (4732466D17Rik) (24 h average): −0.03697 | Gene expression data BB043558 (9230114K14Rik) (24 h average): −0.1292 | Gene expression data BB275142 (AW456874) (24 h average): 0.02823 | Gene expression data BB308836 (Ppm1l) (24 h average): −0.0317 | Gene expression data BB318221 (Zdhhc14) (24 h average): 0.0002333 | Gene expression data BB463610 (4632434l11Rik) (24 h average): −0.3672 | Gene expression data BB526605 (Mipol1) (24 h average): 0.3407 | Gene expression data BB770528 (Rai2) (24 h average): −0.08327 | Gene expression data BB821363 (Scfd2) (24 h average): −0.084 | Gene expression data BC004827 (Psat1) (24 h average): 0.3937 | Gene expression data BC008626 (Icam1) (24 h average): −0.2705 | Gene expression data BC010462 (BC010462) (24 h average): −0.4089 | Gene expression data BC012247 (Dcxr) (24 h average): −0.0311 | Gene expression data BC012260 (Psmf1) (24 h average): −0.1838 | Gene expression data BC015270 (Hist2h3c2) (24 h average): 0.1186 | Gene expression data BC016073 (Cdkal1) (24 h average): 0.0051 | Gene expression data BC016265 (Ube2e2) (24 h average): 0.01507 | Gene expression data BC019882 (Acaa1b) (24 h average): 1.0984 | Gene expression data BC025501 (Aaas) (24 h average): −0.2261 | Gene expression data BC025837 (Sbk1) (24 h average): −0.3033 | Gene expression data BC025915 (Cova1) (24 h average): −0.05383 | Gene expression data BC026422 (Tgm1) (24 h average): 0.0232 | Gene expression data BF719766 (Thyn1) (24 h average): −0.1153 | Gene expression data BG065754 (Ccng1) (24 h average): −0.08917 | Gene expression data BG066903 (Kif16b) (24 h average): 0.0241 | Gene expression data BG069873 (Gnb1l) (24 h average): −0.2107 | Gene expression data BG070887 (Gtdc1) (24 h average): −0.05163 | Gene expression data BG076151 (Ppm1d) (24 h average): −0.08637 | Gene expression data BG261907 (Large) (24 h average): 0.09293 | Gene expression data BI651416 (Cdc42bpg) (24 h average): 0.01387 | Gene expression data BI660702 (Ell3) (24 h average): −0.1539 | Gene expression data BM198879 (Ercc5) (24 h average): −0.2194 | Gene expression data BM230508 (A030007D23Rik) (24 h average): −0.1178 | Gene expression data NM_007987 (Fas) (24 h average): −0.1337 | Gene expression data NM_008522 (Ltf) (24 h average): 0.0771 | Gene expression data NM_008576 (Abcc1) (24 h average): 0.3586 | Gene expression data NM_011176 (St14) (24 h average): −0.1445 | Gene expression data NM_011316 (Saa4) (24 h average): −0.1988 | Gene expression data NM_012006 (Acot1) (24 h average): 1.862 | Gene expression data NM_013866 (Zfp385) (24 h average): −0.1953 | Gene expression data NM_018770 (Igsf4a) (24 h average): −0.08853 | Gene expression data NM_021451 (Pmaip1) (24 h average): 0.01303 | Gene expression data NM_025770 (Atg10) (24 h average): −0.01263 | Gene expression data NM_028803 (Gbe1) (24 h average): −0.0826 | Gene expression data NM_030697 (Ankrd47) (24 h average): −0.1623 | Gene expression data NM_053168 (Trim11) (24 h average): −0.201 | Gene expression data NM_134188 (Acot2) (24 h average): 0.8696 | Gene expression data Y15910 (Diap2) (24 h average): 0.06533 | Gene expression AA561726 average (48 h): 0.3194 | Gene expression AF000969 average (48 h): −0.5599 | Gene expression AF022072 average (48 h): 0.5563 | Gene expression AF033112 average (48 h): 0.1422 | Gene expression AF055573 average (48 h): −0.1687 | Gene expression AF069954 average (48 h): −0.3847 | Gene expression AF297615 average (48 h): 0.111 | Gene expression AF335325 average (48 h): −0.0865 | Gene expression AI594683 average (48 h): −0.5224 | Gene expression AI747296 average (48 h): −0.0394 | Gene expression AK005731 average (48 h): −0.6498 | Gene expression AK007854 average (48 h): −0.2242 | Gene expression AK010447 average (48 h): −0.1083 | Gene expression AK010738 average (48 h): −0.06687 | Gene expression AK014608 average (48 h): −0.455 | Gene expression AK017734 average (48 h): −0.5275 | Gene expression AK018383 average (48 h): −0.0203 | Gene expression AK019979 average (48 h): 0.04547 | Gene expression AV095209 average (48 h): 0.2956 | Gene expression AV141095 average (48 h): −0.0311 | Gene expression AV173869 average (48 h): −0.005067 | Gene expression AV216768 average (48 h): 0.4153 | Gene expression AV219418 average (48 h): 0.1539 | Gene expression AV221299 average (48 h): 0.1649 | Gene expression AV246296 average (48 h): −0.1054 | Gene expression AV251625 average (48 h): 0.0423 | Gene expression AV254764 average (48 h): −0.265 | Gene expression AV327248 average (48 h): 0.0856 | Gene expression BB009155 average (48 h): −0.4697 | Gene expression BB027848 average (48 h): −0.2609 | Gene expression BB043558 average (48 h): −0.188 | Gene expression BB046347 average (48 h): −0.1072 | Gene expression BB140436 average (48 h): −0.07237 | Gene expression BB204486 average (48 h): 0.3188 | Gene expression BB223872 average (48 h): −0.4287 | Gene expression BB246912 average (48 h): −0.1992 | Gene expression BB275142 average (48 h): −0.2874 | Gene expression BB458460 average (48 h): 0.007967 | Gene expression BB463610 average (48 h): −0.2186 | Gene expression BB730977 average (48 h): 0.7532 | Gene expression BB743970 average (48 h): 0.1551 | Gene expression BB770528 average (48 h): −0.001733 | Gene expression BB781615 average (48 h): −0.2937 | Gene expression BC003284 average (48 h): −0.2108 | Gene expression BC004827 average (48 h): 0.3756 | Gene expression BC005552 average (48 h): 0.3056 | Gene expression BC006713 average (48 h): −0.1305 | Gene expression BC010318 average (48 h): 0.1353 | Gene expression BC012247 average (48 h): −0.5319 | Gene expression BC012955 average (48 h): −0.2554 | Gene expression BC013893 average (48 h): −0.5709 | Gene expression BC017615 average (48 h): 0.06827 | Gene expression BC019379 average (48 h): 0.0072 | Gene expression BC019882 average (48 h): 0.1948 | Gene expression BC021352 average (48 h): 0.06563 | Gene expression BC022148 average (48 h): −0.1976 | Gene expression BC025169 average (48 h): −0.0788 | Gene expression BC026131 average (48 h): 0.0392 | Gene expression BC027026 average (48 h): −0.007933 | Gene expression BC027121 average (48 h): −0.1424 | Gene expression BC027185 average (48 h): −0.2381 | Gene expression BE956581 average (48 h): 0.04267 | Gene expression BF719766 average (48 h): 0.07637 | Gene expression BG065754 average (48 h): 0.0641 | Gene expression BG066491 average (48 h): −0.061 | Gene expression BG076151 average (48 h): −0.241 | Gene expression BG076333 average (48 h): 0.2383 | Gene expression BG797099 average (48 h): −0.02097 | Gene expression BG967046 average (48 h): −0.2562 | Gene expression BI651416 average (48 h): −0.1051 | Gene expression BI966443 average (48 h): 0.07723 | Gene expression BM198879 average (48 h): −0.1608 | Gene expression BM200015 average (48 h): 0.009533 | Gene expression BM230508 average (48 h): −0.471 | Gene expression BM936480 average (48 h): −0.04323 | Gene expression BQ174991 average (48 h): 0.4039 | Gene expression L21027 average (48 h): 0.3857 | Gene expression NM_007556 average (48 h): 0.5247 | Gene expression NM_007980 average (48 h): 0.1776 | Gene expression NM_007987 average (48 h): −0.005833 | Gene expression NM_008522 average (48 h): −0.06957 | Gene expression NM_008935 average (48 h): 0.3779 | Gene expression NM_009897 average (48 h): 0.09963 | Gene expression NM_011075 average (48 h): 0.3891 | Gene expression NM_011176 average (48 h): −0.4607 | Gene expression NM_011316 average (48 h): −0.4717 | Gene expression NM_012006 average (48 h): 1.5971 | Gene expression NM_013642 average (48 h): 0.3286 | Gene expression NM_013738 average (48 h): −0.3378 | Gene expression NM_013929 average (48 h): −0.006633 | Gene expression NM_018881 average (48 h): 0.08383 | Gene expression NM_019738 average (48 h): −0.6326 | Gene expression NM_030697 average (48 h): −0.6238 | Gene expression NM_053122 average (48 h): −0.04513 | Gene expression NM_134147 average (48 h): −0.2207 | Gene expression NM_134188 average (48 h): 0.2382 | Gene expression X62701 average (48 h): 0.7542
